Data reported in patent publication US7691392B2 (Kosan Biosciences Incorporated, priority 2005, dated 2010).

How the values were obtained:
[1] = patients treated at 56 mg/m^2 17-AAG; cited from earlier work
[2] = Plasma pharmacokinetics of 17-AAG and 17-AG in the open-label dose escalating trial in MM patients
Description: The total number of PK samples collected was approximately 110 mL of whole blood (7-8 tablespoons). If a patient experienced a potentially drug-related SAE, additional PK samples were collected. Blood was drawn from the contralateral arm to the infusion site using an indwelling catheter to avoid multiple needle sticks. […] The blood tube was inverted several times, and the tube placed in wet ice immediately pending separation of the plasma. If a catheter was used for blood collection, the fluid in the catheter was completely withdrawn prior to each sample collection and discarded. Plasma samples were kept on wet ice during collection and centrifugation. Plasma samples were split into two cryovials prior to freezing at −70° C.
The PK analysis was performed as follows. […] PK parameters were calculated on plasma concentration time data by non-compartmental analysis using Kinetica version 4.3 software (Innaphase, Champs sur Marne, France). AUC was calculated by the mixed log-linear rule: the linear rule was applied to the range where concentration was ascending and the log-linear rule was applied to the range where the concentration was descending. AUClast is the area from t=0 to tlast, the last sampling time. AUCextra is the extrapolated area from AUClast to infinity and AUCtotal=AUClast+AUCextra and is also named AUC0-∞ area under the concentration-time curve from time zero to infinity. The terminal rate constant λz was calculated on at least three points on the elimination curve with values greater than the lower limit of quantitation. […] Table 5 lists the areas, Cmax, and half-life for the metabolite 17-AG (mean±one standard deviation). […] There was no dose dependency for half-life, clearance or distributive volumes for these dose administrations.

[3] = Cellular assays, relative potency of 17-AAG and 17-AG; assay type: cell-based; conditions: 17-AAG versus 17-AG

## CO[C@H]1/C=C\C=C(/C)C(=O)NC2=CC(=O)C(N)=C(C[C@@H](C)C[C@H](OC)[C@H](O)[C@@H](C)/C=C(\C)[C@@H]1OC(N)=O)C2=O [17-AG, 17-aminogeldanamycin]
[1]
  Vz: 203 L/m^2
  clearance: 30.8 L/h/m^2
[2]; 220 mg/m^2 cohort
  time post infusion from which plasma level of 17-AG exceeded the parent drug: approximately 7 hours
[2]; 17 patients, first vs fourth infusion
  change of AUCtotal between Day 1 and Day 11: no pattern of increase or decrease
[2]; 150-340 mg/m^2 17-AAG
  dose proportionality of Cmax: did not increased in a dose proportional manner
[2]; 150 and 275 mg/m^2 cohorts
  time post infusion from which plasma level of 17-AG exceeded the parent drug: approximately 3 hours
[2]; human, plasma, intravenous
  half-life: 4.6 to 5.4 h
[3]
  relative potency in cellular assays: equipotent
